From US20260014225A1, “USE OF HULLESS BARLEY GRASS EXTRACT IN CONTROLLING COLORECTAL CANCER AND ULCERATIVE COLITIS” (Shanghai Jiao Tong University, priority 2024, published 2026)

Columns and labels:
Type in all cases: in vivo, C57BL/6N male mice
COX-2, EGFR, INOS genes = test: qPCR of COX-2, EGFR and INOS genes in tumor tissue of colorectal cancer mice
Experimental: (§1) The whole colon of a mouse was divided into two major parts, namely the tumor segment and the white-side segment. 20 mg of tumor tissue and white-side tissue were taken from the same mouse for total RNA extraction and reverse transcription reaction. The specific operation was the same as above.
(§2) The experimental data were plotted using GraphPad Prism9.0, and statistical analysis was conducted using one-way ANOVA, where “ns” indicated no significant difference, “*” indicated p<0.05, “**” indicated p<0.01, “***” indicated p<0.001, and “****” indicated p<0.0001. The relative expression of mRNA in qPCR was calculated using the […] method.

intestinal flora = test: 16S rRNA sequencing of intestinal flora in colorectal cancer mice; details: colorectal cancer mice (FIG. 16D)
Experimental: The mouse feces was collected using a 1.5 mL EP tube, immediately frozen in liquid nitrogen, and stored at −80° C. before sample delivery. 6 samples of mouse colon contents were collected from each group and placed in dry ice for 16S rRNA sequencing by Qingdao Biomarker Technologies Co., LTD.

[1] = tested on: colon tissue of colorectal cancer mice; test: Colon Swiss roll H&E histopathology of colorectal cancer mice; details: AOM/DSS colorectal cancer mice, compared with the model group (FIG. 13)
Experimental: The colon was taken out from the fixative in a fume hood, one end of the colon was gently clamped with ophthalmic forceps, and the entire colon was gently rolled around the forceps in one direction. Be careful not to do it too tight or too loose, otherwise the intestinal villi might fall over or become loose. The Swiss roll was prepared by piercing the edge of the rolled intestine with a fine needle to complete the fixation, and the ophthalmic forceps were removed in the center of the colon. The Swiss roll was placed in an embedding frame and labeled, followed by dehydration and wax immersion, paraffin embedding, paraffin sectioning, dewaxing to water, hematoxylin staining, eosin staining, dehydration and sealing, microscopic examination, and graphic analysis.

TNF-α, IL-6, IL-1β mRNA = test: qPCR of inflammatory factors in tumor tissue of colorectal cancer mice
Experimental: as §1, §2

[2] = tested on: colitis-associated colorectal cancer model in mice; test: AOM/DSS-induced colitis-associated colorectal cancer mouse model (body weight, colon, tumors, serum IL-6)
Experimental: In this experiment, a mouse colitis-associated colorectal cancer model was established using AOM/DSS, and a specific process is shown in FIG. 2. C57BL/6N male mice were placed in an SPF barrier environment for adaptive feeding for one week, while mice with abnormal weight were eliminated. The remaining mice were randomly divided into […], namely: blank group, 3% DSS+normal saline group (a model group), 3% DSS+300 mg/kg mesalazine (a positive drug group), 3% DSS+600 mg/kg hulless barley grass-derived polyphenol crude extract (Example 1), 3% DSS+400 mg/kg hulless barley grass-derived polysaccharide crude extract (Comparative Example 1), 3% DSS+200 mg/kg hulless barley grass-derived lipid crude extract (Comparative Example 2), and 3% DSS+600 mg/kg hulless barley seed-derived polyphenol crude extract (Comparative Example 3). There were ten mice in each group. In the second week, the mice in the model group, positive group, grass polyphenol group, polysaccharide group, lipid group, and seed polyphenol group were intraperitoneally injected with 10 mg/kg AOM. From the third week, the mice drank 3% DSS aqueous solution for one week, and then the DSS aqueous solution was replaced with sterile water for the mice to drink. The experiment ended after six weeks. During the entire experiment, each group of mice was gavaged with medication according to the grouping. The conditions of mice were observed and their weights were recorded each time they were gavaged. At the end of the experiment, all mice were anesthetized, and the colon (from the anus to the cecum), liver, kidney, and spleen tissues of the mice were collected and weighed after dissection. The intestinal contents were gently rinsed with PBS and the length of the mouse colon tissue was measured. The colon was longitudinally cut open with ophthalmic scissors, and the number and size of tumors in the mouse colon were measured with a vernier caliper and recorded. A part of the whole colon of the mouse was taken for the subsequent preparation of colon Swiss rolls, fixated in 4% paraformaldehyde fixative for histopathological analysis, and the remaining tissues were quick-frozen in liquid nitrogen and then transferred to a −80° C. refrigerator for further measurement of qPCR and other experiments.

[3] = tested on: acute ulcerative colitis model in mice; test: DSS-induced acute ulcerative colitis mouse model (body weight, DAI, colon length, survival); details: 3% DSS colitis mice, gavage; model group 2.93, blank 0 (FIG. 3C)
Description: In this experiment, DSS was used to construct an acute ulcerative colitis model in mice, and a specific process is shown in FIG. 1. C57BL/6N male mice were placed in an SPF barrier environment for adaptive feeding for one week, while mice with abnormal weight were eliminated. […] From the first day, mice in all groups except the blank group were given drugs by gavage throughout the whole process; from the fourth day, mice in all groups (except the blank group) drank 3% DSS aqueous solution freely for one week; from the tenth day, 3% DSS was replaced with sterile drinking water for experimental mice, and the mice were allowed to recover naturally for one week; on the eighteenth day, the experiment ended and samples were collected from the mice. After the mice were anesthetized, blood was collected from their orbits. After blood collection, the liver, kidney, and spleen tissues of the mice were collected and weighed. The colon tissue from the cecum to the anus of the mice was collected and its length was measured. A 1 cm to 2 cm colon tissue from the anus was fixated in 4% paraformaldehyde solution for histopathological staining. […] During the mouse modeling period, the mouse status was observed daily and the mouse weight was recorded.
The fresh mouse feces were collected and the fecal occult blood was determined according to the instructions of the fecal occult blood assay kit. […]

[4] = AOM/DSS colorectal cancer mice, compared with the model group (FIG. 12C)

## Nc1ccc(O)c(C(=O)O)c1 [mesalazine]
COX-2, EGFR, INOS genes; compared with the model group (FIG. 15A)
  expression level of COX-2 gene: significantly downregulated
COX-2, EGFR, INOS genes; compared with the model group (FIG. 15B)
  expression level of EGFR gene: significantly downregulated
COX-2, EGFR, INOS genes; compared with the model group (FIG. 15C)
  expression level of INOS gene: significantly downregulated
Intestinal flora
  richness and uniformity of the intestinal flora (rank abundance curve): closest to those of the blank group
[1]
  colon thickness and tumors in pathological sections (H&E): showed a similar trend
TNF-α, IL-6, IL-1β mRNA; compared with the model group (FIG. 14A)
  relative expression level of TNF-α mRNA: significantly reduced
TNF-α, IL-6, IL-1β mRNA; compared with the model group (FIG. 14B)
  relative expression level of IL-6 mRNA: significantly reduced
TNF-α, IL-6, IL-1β mRNA; compared with the model group (FIG. 14C)
  relative expression level of IL-1β mRNA: significantly reduced
[2]; AOM/DSS colorectal cancer mice (FIG. 11C)
  colon weight per unit length (increase in tumor weight caused by modeling): effectively reduced the increase in tumor weight caused by modeling
[2]; [4]
  proportion of tumors above 3 mm: decreased
  proportion of tumors less than 2 mm: increased significantly
  proportion of tumors of 2 mm to 3 mm: decreased
[2]; AOM/DSS colorectal cancer mice, last day (FIG. 10B)
  body weight when the experiment was over: significant decrease
[3]
  disease activity index (DAI): 2.33
